Measured values published in patent publication US5607707A, “Compositions” (priority 1992, dated 1997).

What was measured:
[1] = Description: The colour stability of the compositions according to the present invention were determined using the following simulated shelf and accelerated storage tests.
This is illustrated with data from a study in which combinations of β-carotene, apo-carotenal and ascorbic acid were incorporated in a typical beverage formulation. The products were stored in bright daylight conditions for a period of 30 days and the colour loss at the end of this period was determined by spectrophotometry.

[2] = Water solubility / dissolution; assay type: physicochemical; conditions: primary addition of apo-carotenal, in words
[3] = Effect of temperature on amount of emulsifier required to achieve optical clarity (Example 6); assay type: physicochemical; conditions: for Tween 60 required to achieve optical clarity: 1 g crystalline β-carotene
Description: One advantage of the present invention is the wide range of temperatures which can be used in b) above. The temperature developed in mixing in b) is preferably 80°-160° or 180°-200° C. The lower temperatures are particularly useful where more temperature sensitive ingredients are involved. […] Therefore to minimise the amount of emulsifier(s) used, a temperature of not less than 160° C. or preferably 180° C. is preferred. The use of these high temperatures incurs the risk of degradation of pigment unless suitable precautions are taken. For example it is necessary to incorporate an antioxidant in the initial stages of preparation and it is desirable to exclude oxygen by heating the mixture in an atmosphere of nitrogen.
1 g of crystalline β-carotene required the following amounts of Tween 60 at the temperatures stated

Compound	stabilising effect on colour [1]	effect on dissolution of carotene [2]	Tween 60 required to achieve optical clarity ([3]; 140 °C) [g]	Tween 60 required to achieve optical clarity ([3]; 160 °C) [g]	Tween 60 required to achieve optical clarity ([3]; 180 °C) [g]	Tween 60 required to achieve optical clarity ([3]; 200 °C) [g]	effect of temperature on emulsifier required to achieve optical clarity ([3]; pure β-carotene, in words)
O=C1O[C@H]([C@@H](O)CO)C(O)=C1O [ascorbic acid]	effective in reinforcing the stabilising effect of the antioxidants						
CC(C=O)=CC=CC(C)=CC=CC=C(C)C=CC=C(C)C=CC1=C(C)CCCC1(C)C [apo-carotenal, β-8'-apo-carotenal]	helps to stabilise β-carotene	promoting the dissolution of carotene					
CC1=C(/C=C/C(C)=C/C=C/C(C)=C/C=C/C=C(C)/C=C/C=C(C)/C=C/C2=C(C)CCCC2(C)C)C(C)(C)CCC1 [crystalline β-carotene, β-carotene]			10.5	7.5	4.0	3.0	an increase in temperature permits a reduction in the amount of emulsifier(s) required
